Assays:
[1] = system: phospho-AKT (S473); test: AKT phosphorylation in tumor tissue (immunohistochemistry / immunoblot); assay type: in vivo, mouse; settings: for AKT phosphorylation in tumor tissue lysates: immunoblot, tumor taken 2-3 hours after last dose, Compound A 30 mg/kg/day, Compound B 50 mg/kg/day
Experimental: All animal experiments were conducted in accordance with IACUC-approved protocols at Beth Israel Deaconess Medical Center, Boston, and at the University of Vall d'Hebron, Barcelona, Spain. Female MMTV-CreBRCA1^f/fp53+/− mice were obtained by breeding BRCA1 conditional knockout mice from the NIH repository (01XC8, strain C57BL/6) (Xu et al. Nat. Genet., 22: 37-43, 1999); with MMTV-Cre (Jackson Laboratory B6129-TgN(MMTV-Cre)4Mam) (Wagner et al. Nucleic Acids Res., 25: 4323-4330, 1997) and p53 knockout (Taconic Farms, P53N12-M, C57BL/6) (Donehower et al. Nature, 356: 215-221, 1992). At the time of the study, mice had been inbred for 4 years (>7 generations). The floxed or wild type status of Brca1, the presence of the MMTV-Cre transgene and the p53 heterozygosity were determined by PCR. Mice were examined for the occurrence of tumors twice weekly. When tumormetrics were performed, the length and width of the tumor was determined using calipers, and the tumor volume was determined (width^2×length/2). Tumor volume was used as a measure of growth and was recorded as ratio to tumor volume at diagnosis. Tumor doubling times were calculated using the functions of the best fit curves for all data points in each treatment modality. 5-(2,6-dimorpholinopyrimidin-4-yl)-4-(trifluoromethyl)pyridin-2-amine (Compound A) was resuspended in 5% Methylcellulose solution (Fluka) and administered via oral gavage at 50 mg/kg/day or 30 mg/kg/day. […]
Cells were treated with mock, 5-(2,6-dimorpholinopyrimidin-4-yl)-4-(trifluoromethyl)pyridin-2-amine (Compound A), 4-[[3-[4-(cyclopropanecarbonyl)piperazine-1-carbonyl]-4-fluorophenyl]methyl]-2H-phthalazin-1-one (Compound B), KU-55933, or the combination and lysed in cell lysis buffer (9803, Cell Signaling) as per the manufacturer's instructions. […] The protein concentration was determined using Bradford reagent (Biorad). […]

[2] = system: HCC1937 and SUM149 cells; test: Immunoblotting of BRCA1-mutant breast cancer cell lines treated with drugs; assay type: cell-based, human; settings: for overall poly-ADP-ribosylation (PAR): Compound B 10 μM; for activation status of EGFR/MAPK pathways: 72 hours treatment, immunoblot
Text: The PI3K inhibitor 5-(2,6-dimorpholinopyrimidin-4-yl)-4-(trifluoromethyl)pyridin-2-amine (Compound A) was obtained through a Material Transfer Agreement with Novartis Pharmaceuticals. Olaparib (Compound B) was purchased from LC Laboratories (Woburn, Mass.) and KU-55933 was purchased from Selleck Chemicals (Houston, Tex.). BRCA1-mutant human breast cancer cell line HCC1937 was from American Type Culture Collection; # CRL-2336, and maintained in DMEM/10% FBS and SUM149 was from Division of Signal Transduction, BIDMC, maintained in Ham's F-12 with 5% fetal bovine serum (FBS), 5 μg/ml insulin, 2 μg/ml hydrocortisone, 5 μg/ml gentamicin and 2.5 μg/ml fungizone. Cell lines were authenticated by immunoblotting for BRCA1 and PTEN and tested for absence of mycoplasma.
Cells were treated with mock, 5-(2,6-dimorpholinopyrimidin-4-yl)-4-(trifluoromethyl)pyridin-2-amine (Compound A), 4-[[3-[4-(cyclopropanecarbonyl)piperazine-1-carbonyl]-4-fluorophenyl]methyl]-2H-phthalazin-1-one (Compound B), KU-55933, or the combination and lysed in cell lysis buffer (9803, Cell Signaling) as per the manufacturer's instructions. Immunoblots were performed using the Nupage System (Invitrogen). The protein concentration was determined using Bradford reagent (Biorad). A total of 20 μg of protein were loaded, except for PAR, Phospho ATM and Phospho DNA-PK/PRKDC western blots, where 40 μg were loaded. Tumor tissue lysates were prepared similarly with the exception of tissue homogenization by using an electric homogenizer for 30 secs after addition of the lysis buffer. Primary antibodies used for western blotting were total AKT (9272), Cleaved Caspace 3 (9661), total ERK (4695), Phospho AKT Ser473 (4058), Phospho ERK Thr202/Tyr204 (9106), Phospho-Histone H2AX Ser139 (2577), PTEN (9559) from Cell Signaling. Phospho ATM Ser1981 (2152-1), Phospho DNA-PK/PRKDC Ser2056 (3892-1) from Epitomics, Inc. CD31 (ab28364), Actin (ab6276), INPP4B (ab81269) from Abcam; pADPr (sc56198) from Santacruz Biotechnology; and Ki-67 (RM-9106) was purchased from Thermo Scientific.

[3] = system: patient-derived tumor with BRCA1 germline mutation 2080delA; test: Patient-derived BRCA1 2080delA breast tumor xenograft growth; assay type: in vivo, human; settings: untreated patient; Compound A 30 mg/kg/day, Compound B 50 mg/kg/day
Text: FIGS. 6G and 6H are graphs showing the relative tumor volume (RTV) over time of tumors from breast cancer tissues from two patients, one with a 185delAG germline mutation (6G) and the other one with a 2080delA germline mutation (6H), propagated as subcutaneous implants in nude mice. Tumors were allowed to grow to a size of 5 mm when mice were randomized to treatments with either vehicle control (squares), Compound A (upside-down triangles), Compound B (triangles), or their combination (diamonds) (n=6 for each cohort, same dosing as in 6F).
All animal experiments were conducted in accordance with IACUC-approved protocols at Beth Israel Deaconess Medical Center, Boston, and at the University of Vall d'Hebron, Barcelona, Spain. […] The floxed or wild type status of Brca1, the presence of the MMTV-Cre transgene and the p53 heterozygosity were determined by PCR. […] When tumormetrics were performed, the length and width of the tumor was determined using calipers, and the tumor volume was determined (width^2×length/2). Tumor volume was used as a measure of growth and was recorded as ratio to tumor volume at diagnosis. Tumor doubling times were calculated using the functions of the best fit curves for all data points in each treatment modality. […]

Nc1cc(C(F)(F)F)c(-c2cc(N3CCOCC3)nc(N3CCOCC3)n2)cn1 [Compound A, 5-(2,6-dimorpholinopyrimidin-4-yl)-4-(trifluoromethyl)pyridin-2-amine]
phosphorylation of AKT at Ser-473 in tumors ([1]; IHC of biopsies before and after two weeks of treatment): strongly decreased | AKT phosphorylation in tumor tissue lysates [1]: potently reduced | cleaved caspase 3 (CC3), apoptosis marker ([2]; 24 hours): remained negative | overall poly-ADP-ribosylation (PAR) ([2]; 24 hours, Compound A 1 μM): dose dependent increase | H2AX phosphorylation on Serine 139 (γH2AX) ([2]; 24 hours, Compound A 1 μM, Compound B 10 μM in combination): increased with increasing concentrations | activation status of EGFR/MAPK pathways [2]: induced a compensatory activation | phosphorylation of AKT ([2]; increasing concentrations, 24 hours): diminishing phosphorylation | sensitivity of patient-derived tumor (relative tumor volume) [3]: exquisite sensitivity

O=C(c1cc(Cc2n[nH]c(=O)c3ccccc23)ccc1F)N1CCN(C(=O)C2CC2)CC1 [Compound B, 4-[[3-[4-(cyclopropanecarbonyl)piperazine-1-carbonyl]-4-fluorophenyl]methyl]-2H-phthalazin-1-one, reference compound]
AKT phosphorylation in tumor tissue lysates [1]: induction of AKT phosphorylation | overall poly-ADP-ribosylation (PAR) ([2]; 24 hours, Compound A 1 μM): completely blocked | activation status of EGFR/MAPK pathways [2]: did not have a discernible effect | sensitivity of patient-derived tumor (relative tumor volume) [3]: exquisite sensitivity
